# From US6492356B1, “Acylguanidine derivatives as inhibitors of bone resorption and as vitronectin receptor antagonists” (Aventis Pharma Deutschland GmbH, priority 1997, dated 2002)
# Target: T1, vitronectin receptor αvβ3 (Homo sapiens, UniProt P05106+P06756)
# T1 construct: expressed in transfected cells
# Assay: Inhibition of binding of 293 cells to human vitronectin (Vn/293 cell test)
# Assay type: cell-based
# Conditions: 293 cells cotransfected with αv and β3 subunits; plate coated with human vitronectin; 90 min at 37° C.
# From the text: Test for the measurement of the inhibition of binding of 293 cells to human vitronectin (Vn/293 cell test)
# 1. Purification of Human Vitronectin
# Human vitronectin is isolated from human plasma and purified by affinity chromatography according to the method of Yatohyo et al., Cell Structure and Function, 1988, 23, 281-292.
# 293 cells, a human embryonic kidney cell line, which are cotransfected with DNA sequences for the αv and β3 subunits of the vitronectin receptor αvβ3 , are selected for a high rate of expression (>500,000 αvβ3 receptors/cell) according to the FACS method. The selected cells are cultured and sorted again by means of FACS in order to obtain a stable cell line (15 D) with expression rates >1,000,000 copies of αvβ3 per cell.
# A Linbro 96-well tissue culture plate with a flat bottom is coated overnight at 4° C. with human vitronectin (0.01 mg/ml, 0.05 ml/well) in phosphate-buffered saline solution (PBS) and then blocked with 0.5% strength BSA (bovine serum albumin). Solutions of the test substances from 10^−10 mol/l to 2×10^−3 mol/l in glucose-containing DMEM medium are prepared and 0.05 ml/well of the solution are added to the plate in each case. The cells which express high levels of αvβ3 (for example 15 D) are suspended in glucose-containing DMEM medium and the suspension is adjusted to a content of 25,000 cells/0.05 ml of medium. 0.05 ml of this cell suspension is added to each well and the plate is incubated at 37° C. for 90 min. The plate is washed three times with warm PBS in order to remove unbound cells. The bound cells are lyzed in citrate buffer (25 mM, pH 5.0) which contains 0.25% Triton X-100. The hexoseamidase substrate p-nitrophenyl-N-acetyl-β-D-glucosaminide is then added and the plate is incubated at 37° C. for 90 min. The reaction is stopped with a glycine (50 mM)/EDTA (5 mM) buffer (pH 10.4) and the absorption of each well is measured at 405-650 nm. The data are analyzed according to standard processes.
# T1 sequence (P06756 31-889 limits assumed): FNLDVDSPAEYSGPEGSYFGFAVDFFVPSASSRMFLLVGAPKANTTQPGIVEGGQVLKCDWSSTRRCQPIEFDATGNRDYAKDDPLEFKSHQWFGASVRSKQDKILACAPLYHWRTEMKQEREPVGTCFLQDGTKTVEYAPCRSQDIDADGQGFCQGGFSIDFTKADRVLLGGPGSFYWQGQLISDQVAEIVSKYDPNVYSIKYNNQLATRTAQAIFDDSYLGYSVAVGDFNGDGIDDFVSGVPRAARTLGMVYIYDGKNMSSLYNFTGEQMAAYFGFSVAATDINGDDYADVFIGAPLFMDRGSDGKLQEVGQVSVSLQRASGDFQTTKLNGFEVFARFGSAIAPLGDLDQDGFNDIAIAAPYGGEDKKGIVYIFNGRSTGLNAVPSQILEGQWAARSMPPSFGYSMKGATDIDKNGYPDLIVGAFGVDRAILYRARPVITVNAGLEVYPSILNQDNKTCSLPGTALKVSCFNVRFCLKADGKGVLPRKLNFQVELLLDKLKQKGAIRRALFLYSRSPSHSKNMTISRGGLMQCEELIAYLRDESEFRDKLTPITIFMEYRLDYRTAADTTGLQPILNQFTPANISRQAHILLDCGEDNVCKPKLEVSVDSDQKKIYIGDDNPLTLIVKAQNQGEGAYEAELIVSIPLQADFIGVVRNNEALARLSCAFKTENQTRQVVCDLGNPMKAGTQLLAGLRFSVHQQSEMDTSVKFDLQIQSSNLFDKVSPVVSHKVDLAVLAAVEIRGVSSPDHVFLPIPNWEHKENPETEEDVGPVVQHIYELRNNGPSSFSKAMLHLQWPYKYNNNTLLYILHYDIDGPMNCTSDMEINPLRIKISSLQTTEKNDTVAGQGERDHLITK
# T1 sequence (P06756 891-1048 limits assumed): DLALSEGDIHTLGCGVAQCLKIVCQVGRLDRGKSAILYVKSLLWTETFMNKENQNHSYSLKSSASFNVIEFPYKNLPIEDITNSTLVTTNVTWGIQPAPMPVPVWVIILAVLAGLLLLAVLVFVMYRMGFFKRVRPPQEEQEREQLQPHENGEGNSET
# T1 sequence (P05106 27-788): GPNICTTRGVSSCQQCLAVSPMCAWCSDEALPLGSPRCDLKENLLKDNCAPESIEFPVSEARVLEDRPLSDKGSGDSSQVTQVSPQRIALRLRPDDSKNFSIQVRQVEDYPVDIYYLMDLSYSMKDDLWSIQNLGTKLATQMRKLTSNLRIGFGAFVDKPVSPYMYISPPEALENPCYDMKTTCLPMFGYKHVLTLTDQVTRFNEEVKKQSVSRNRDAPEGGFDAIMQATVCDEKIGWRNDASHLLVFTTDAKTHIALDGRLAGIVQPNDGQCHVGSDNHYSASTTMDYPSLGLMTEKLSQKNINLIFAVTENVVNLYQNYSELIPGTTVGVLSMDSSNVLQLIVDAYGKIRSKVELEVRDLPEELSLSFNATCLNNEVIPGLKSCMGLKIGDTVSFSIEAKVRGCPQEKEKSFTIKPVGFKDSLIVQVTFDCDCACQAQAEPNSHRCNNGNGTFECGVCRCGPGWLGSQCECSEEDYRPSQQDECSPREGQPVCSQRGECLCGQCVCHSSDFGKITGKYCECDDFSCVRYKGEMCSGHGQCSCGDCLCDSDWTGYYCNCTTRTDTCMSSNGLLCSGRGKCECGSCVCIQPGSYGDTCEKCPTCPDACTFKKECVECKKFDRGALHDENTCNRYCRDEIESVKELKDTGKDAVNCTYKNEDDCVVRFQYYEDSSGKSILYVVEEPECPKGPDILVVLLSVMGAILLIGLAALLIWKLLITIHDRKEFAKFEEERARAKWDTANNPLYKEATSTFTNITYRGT
row,IC50 [nM],Structure (SMILES)
1,17,"O=C(CCc1ccc(C(=O)NC[C@H](NC(=O)OCc2ccccc2)C(=O)O)cc1)NC1=NCCCN1 [Example 2, (2S)-2-Benzyloxycarbonylamino-3-(4-(2-(1,4,5,6-tetrahydropyrimidin-2-ylcarbamoyl)ethyl)benzoylamino)propionic Acid]"
2,28,"O=C(CCCOc1ccc(C[C@H](NC(=O)OCc2ccccc2)C(=O)O)cc1)NC1=NCCCN1 [Example 1, (2S)-2-Benzyloxycarbonylamino-3-(4-(3-(1,4,5,6-tetrahydropyrimidin-2-ylcarbamoyl)propyloxy)phenyl)propionic Acid]"
3,32,"O=C(CCCOc1ccc(C[C@H](NC(=O)OCc2ccccc2)C(=O)O)cc1)NC1=NCCN1 [Example 6, (2S)-2-Benzyloxycarbonylamino-3-(4-(3-(4,5-dihydro-1H-imidazol-2-ylcarbamoyl)propyloxy)phenyl)propionic Acid]"
4,1350,"O=C(COc1ccc(C(=O)NC[C@H](NC(=O)OCc2ccccc2)C(=O)O)cc1)NC1=NCCCN1 [Example 3, (2S )-2-Benzyloxycarbonylamino-3-(4-((1,4,5,6-tetrahydropyrimidin-2-ylcarbamoyl)methyloxy)benzoylamino)propionic Acid]"
